Counter-ions that a name gives are not always drawn.

System in the first data set: not given
Experiment: not given
Settings: not given
In the case of `CC(C)CC(O)c1cc2ccncc2[nH]1` (stereo not shown) [Example 79, 3-Methyl-1-(1H-pyrrolo[2,3-c]pyridin-2-yl)-1-butanol], the melting point was 182 to 189 °C (dec.).

In the case of `CC(C)C(=O)c1cc2ccncc2[nH]1` [Example 80, 2-Methyl-1-(1H-pyrrolo[2,3-c]pyridin-2-yl)-1-propanone], the melting point fell in the range of 224 to 228 °C.

`CC(C)CC(=O)c1cc2ccncc2[nH]1` [Example 81, 3-Methyl-1-(1H-pyrrolo[2,3-c]pyridin-2-yl)-1-butanone] registered a melting point of 215 to 218 °C.

For the molecule `OC(CCc1ccccc1)c1cc2ccncc2[nH]1` (stereo not shown) [Example 83, 3-Phenyl-1-(1H-pyrrolo[2,3-c]pyridin-2-yl)propan-1-ol], the melting point lay within 162 to 166 °C.

Regarding `OC(Cc1ccccc1)c1cc2ccncc2[nH]1` (stereo not shown) [Example 85, 2-Phenyl-1-(1H-pyrrolo[2,3-c]pyridin-2-yl)ethanol], the melting point is 169 to 172 °C (dec.).

`O=C(CCc1ccccc1)c1cc2ccncc2[nH]1` [Example 89, 3-Phenyl-1-(1H-pyrrolo[2,3-c]pyridin-2-yl)propan-1-one] registered a melting point of 246 to 250 °C.

For `CC(C)(C)OC(=O)N1CCC(ON=C(c2ccccc2)c2cc3ccncc3[nH]2)C1` (stereo not shown) [Example 90, tert-Butyl 3-[[[phenyl(1H-pyrrolo[2,3-c]pyridin-2-yl)methylene]amino]oxy]pyrrolidine-1-carboxylate], the melting point fell in the range of 80 to 82 °C.

As for `Cl.NCCO/N=C(\c1ccccc1)c1cc2ccncc2[nH]1` [Example 95], the melting point is 161 to 165 °C (dec.).

`Cc1ccc(C(O)c2cc3ccncc3[nH]2)cc1` (stereo not shown) [Example 98, (4-Methylphenyl)(1H-pyrrolo[2,3-c]pyridin-2-yl)methanol] registered a melting point of 78 to 82 °C.

For `COc1ccc(C(O)c2cc3ccncc3[nH]2)cc1` (stereo not shown) [Example 99, (4-Methoxyphenyl)(1H-pyrrolo[2,3-c]pyridin-2-yl)methanol], the melting point was 183 to 185 °C (dec.).

As for `Cc1ccc(C(=O)c2cc3ccncc3[nH]2)cc1` [Example 100, (4-Methylphenyl)(1H-pyrrolo[2,3-c]pyridin-2-yl)methanone], the melting point was 264 to 268 °C (dec.).

Regarding `OC(c1ccc(Cl)cc1)c1cc2ccncc2[nH]1` (stereo not shown) [Example 101, (4-Chlorophenyl)(1H-pyrrolo[2,3-c]pyridin-2-yl)methanol], the melting point was 176 to 180 °C.

In turn, `COc1ccc(C(=O)c2cc3ccncc3[nH]2)cc1` [Example 102, (4-Methoxyphenyl)(1H-pyrrolo[2,3-c]pyridin-2-yl)methanone] came in with a melting point of 225 to 228 °C.

With `O=C(c1ccc(Cl)cc1)c1cc2ccncc2[nH]1` [Example 103, (4-Chlorophenyl)(1H-pyrrolo[2,3-c]pyridin-2-yl)methanone], the melting point was 274 to 277 °C (dec.).

As to `OC(c1ccc(Cl)c(Cl)c1)c1cc2ccncc2[nH]1` (stereo not shown) [Example 113, (3,4-Dichlorophenyl)(1H-pyrrolo[2,3-c]pyridin-2-yl)methanol], the melting point was 264 to 266 °C (dec.).

`OC(c1ccccn1)c1cc2ccncc2[nH]1` (stereo not shown) [Example 117, (Pyridin-2-yl)(1H-pyrrolo[2,3-c]pyridin-2-yl)methanol] registered a melting point of 166 to 169 °C.

The molecule `CON=C(c1ccccc1)c1cc2ccncc2[nH]1.Cl` [Example 120] returned a melting point of 202 to 203 °C.

With `CON=C(c1ccccc1)c1cc2ccncc2[nH]1.Cl` [Example 121], the melting point lay within 220 to 222 °C.

`O=C(c1ccccn1)c1cc2ccncc2[nH]1` [Example 122, (Pyridin-2-yl)(1H-pyrrolo[2,3-c]pyridin-2-yl)methanone] yielded a melting point of 219 to 222 °C.

For the molecule `O=C(c1ccc(Cl)c(Cl)c1)c1cc2ccncc2[nH]1` [Example 127, (3,4-Dichlorophenyl)(1H-pyrrolo[2,3-c]pyridin-2-yl)methanone], the melting point is 274 to 277 °C (dec.).

Consider `O=C(c1ccoc1)c1cc2ccncc2[nH]1` [Example 137, 3-Furyl(1H-pyrrolo[2,3-c]pyridin-2-yl)methanone], for which the melting point was 232 to 236 °C (dec.).

For another data set, the target named is T1, IKKβ (Homo sapiens, UniProt O14920).
T1 construct: made in house; host or cells: Sf-21 insect cells, recombinant baculovirus BAC-IKKB (pFASTBAC1)
T1 sequence (O14920 1-756): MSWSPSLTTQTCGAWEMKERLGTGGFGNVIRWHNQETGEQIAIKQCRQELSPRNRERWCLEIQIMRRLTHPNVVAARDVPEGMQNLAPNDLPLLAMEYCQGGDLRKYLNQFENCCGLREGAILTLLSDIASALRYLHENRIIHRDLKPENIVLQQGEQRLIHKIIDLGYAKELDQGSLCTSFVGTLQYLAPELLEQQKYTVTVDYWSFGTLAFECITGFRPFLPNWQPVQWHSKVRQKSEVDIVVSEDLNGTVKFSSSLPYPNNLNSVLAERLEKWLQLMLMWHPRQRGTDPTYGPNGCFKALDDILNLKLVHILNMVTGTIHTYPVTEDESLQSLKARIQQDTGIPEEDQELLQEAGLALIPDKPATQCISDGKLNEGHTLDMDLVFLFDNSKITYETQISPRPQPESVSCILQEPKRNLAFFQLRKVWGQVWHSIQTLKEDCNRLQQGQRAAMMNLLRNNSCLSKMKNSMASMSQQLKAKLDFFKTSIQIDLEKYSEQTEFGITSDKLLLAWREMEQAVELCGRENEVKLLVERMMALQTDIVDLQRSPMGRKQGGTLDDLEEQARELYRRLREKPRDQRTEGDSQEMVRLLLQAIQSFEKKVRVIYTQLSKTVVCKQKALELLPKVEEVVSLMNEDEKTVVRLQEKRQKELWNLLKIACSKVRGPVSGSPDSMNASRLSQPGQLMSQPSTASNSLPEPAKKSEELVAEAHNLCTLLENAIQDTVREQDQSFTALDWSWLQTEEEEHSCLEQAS
Briefly: Determination of IKKβ inhibitory activity (32P uptake into IκBα substrate). Format: biochemical. The conditions noted are these: active IKKβ 10 ng, IκBα substrate protein, [γ-32P]ATP, 30° C. for 60 min; 50% inhibition of 32P uptake by the acid insoluble fraction. On the procedure:
To a reaction solution (37.5 μl, 25 mM HEPES (pH 7.5), 10 mM magnesium acetate) containing active IKKβ (10 ng) obtained in Reference Example 3A and 2.5 μg of IκBα substrate protein solution was added a test compound (2.5 μl) dissolved in DMSO, and the mixture was incubated at 30° C. for 5 min. To the obtained mixture was added 10 μl of ATP solution (2.5 μM ATP, 0.01 μCi [γ-^32P]ATP) and the mixture was allowed to react at 30° C. for 60 min. Then 20% TCA solution (50 μl) was added thereto to stop the reaction. The reaction solution was left standing at 4° C. for 20 min. and acid insoluble fraction was transferred to a GF/C filter (PACKARD JAPAN KK) using a cell harvester (PACKARD JAPAN KK) and washed with 250 mM phosphoric acid solution. The plate after washing was dried at 45° C. for 60 min., 40 μl of MicroSinti 0 (PACKARD JAPAN KK) was added and the radioactivity was determined using TopCount (PACKARD JAPAN KK). The concentration (IC50) of the test compound necessary for 50% inhibition of the amount of ^32P uptake by the acid insoluble fraction was calculated using PRISM 3.0 (GraphPad Software, Inc.).
As to `c1ccc(C(=NOC2CCNC2)c2cc3ccncc3[nH]2)cc1` (stereo not shown) [Example 91, Phenyl (1H-pyrrolo[2,3-c]pyridin-2-yl)methanone O-pyrrolidin-3-yloxime dihydrochloride], the midpoint of inhibition, the IC50, lay at 1700 nM.

The record behind these values is patent US7608627B2, “6-azaindole compound” (Takeda Pharmaceutical Company Limited, priority 2005, dated 2009).
